In patent US8859527B2 (priority 2009, dated 2014):
Read-outs that look alike come from different tables or passages of the source.

Tests used:
colon cancer HT-29 = details: cited from earlier work
[1] = test system: BGC-823 (human gastric cancer cell line); assay: in vitro growth inhibition of tumor cells, BGC-823; assay type: cell-based; details: for Inhibition effects on in vitro growth: 48 hours
Method: (§1) The tumor strains are A-549 (human lung adenocarcinoma cell line), BGC-823 (human gastric cancer cell line), C-6 (rat neurogliocytoma cell line), Hep G2 (human hepatic cancer cell line), HL-60 (human leukemia cell line), K-562 (human erythremia cell line) and Hela (human cervical cancer cell line). […] The drug was prepared as a stock solution of 10^−2 M by using physiological saline and diluted into the test solution in a gradient composed of five concentrations: C1 5×10^−5 M, C2 10^−5 M, C3 10^−6 M, C4 10^−7 M and C5 10^−8 M.
(§2) Experimental method: different tumor cells in exponential growth phase are inoculated in 96-well plates in a certain amount and the selected samples are added after the cells are cultured for 24 hours (suspension cells can be directly added after being inoculated), after the cells are incubated at 37° C. and 5% CO2 for another 48 hours, […] is added for further incubation for another 4 hours, and finally the samples are examined on a microplate reader after dissolving with DMSO.

human lung cancer A-549 = details: cited from earlier work
[2] = test system: K-562 (human erythremia cell line); assay: in vitro growth inhibition of tumor cells, K-562; assay type: cell-based; details: for Inhibition effects on in vitro growth: K562, 48 hours
Method: as §1, §2

[3] = test system: Hep G2 (human hepatic cancer cell line); assay: in vitro growth inhibition of tumor cells, Hep G2; assay type: cell-based; details: HepG2, 48 hours
Method: as §1, §2

[4] = test system: A-549 (human lung adenocarcinoma cell line); assay: in vitro growth inhibition of tumor cells, A-549; assay type: cell-based; details: for Inhibition effects on in vitro growth: A549, 48 hours
Method: as §1, §2

P-388 leukemia = P-388 leukemia cell line; cited from earlier work
[5] = test system: human non-small cell lung cancer H460 xenograft tumor; details: for Ending body weight / Tumor weight / Tumor-inhibition rate: 21 days
Method: The test article: the inclusion complex of DPT and SBE-β-CD, the content is 5.05%. Preparation Method: it is dissolved in a proper amount of saline after gentle shaking and the concentration is 0.4 mg/ml (which is the test solution for the 8 mg/kg group); other concentrations are prepared by diluting the stock solution of 0.4 mg/ml to the required concentration with physiological saline.
The control article: Etoposide injection produced by Qilu Pharmaceutical Co., Ltd. the batch number is 8060012EV, specification: 5 ml:0.1 g. Preparation Method: Etoposide injection is a kind of transparent sticky liquid and it is diluted with a proper amount of physiological saline and gently shaken and prepared as a homogeneous solution, and the concentration is 1 mg/ml.
Dosage setting: the high dosage group of DPT is 8 mg/kg, the medium dosage group of DPT is 4 mg/kg and the low dosage group of DPT is 2 mg/kg. The dosage for the positive control group of Etoposide injection is 20 mg/kg.
Experimental animals: source, germline and strain: BALB/c nude mice are provided by the Institute of Experimental Animals, Chinese Academy of Medical Sciences. Age: 35-40 days; body weight: 18-24 g; gender: male.
Transplanted tumor: the transplanted tumor for human nonsmall-cell lung cancer H460 in nude mice, and it is established by inoculating the human nonsmall-cell lung cancer H460 cell line hypodermically in the armpit of nude mice. 2×10^6 cells are inoculated.
Human non-small cell lung cancer H460 cell line in exponential phase of growth is prepared as a cell suspension of 2×10^7/ml under sterile conditions, 0.1 ml thereof is inoculated hypodermically in the right armpit of nude mice. The diameters of the transplanted tumors in the nude mice are measured by a sliding caliper, and the animals are randomly divided into different groups when the tumors grow up to the amount of 100 to 300 mm^3. The antitumor efficacy of the test article is dynamically observed by measuring the diameter of the tumor. The diameters of the tumor are determined once for every two days. The administration volume is 0.4 ml/20 g. The mice are killed 21 days after administration, and the tumors are surgically isolated and weighed. The calculation formula for tumor volume (TV) is as follows: TV=½×a×b^2 Wherein a and b represents for the length and the width, respectively.
The relative tumor volume (RTV) is calculated according to the measured results, and the calculation formula is as follows: RTV=Vt/V0. Wherein V0 is the tumor size measured during grouping and drug administration (d0), Vt is the tumor size in every measurements. The evaluation parameter for antitumor activity is the relative tumor growth rate T/C (%) which is calculated according to the formula as follows:
[formula] TRTV: the treatment group RTV; CRTV: the negative control group: RTV.

[6] = H460 nude mice, 8 mg/kg iv three times a week, 9 times

In the case of `COc1cc([C@@H]2c3cc4c(cc3C[C@H]3COC(=O)[C@@H]32)OCO4)cc(OC)c1OC` [DPT, Deoxypodophyllotoxin], the “in vitro inhibition effects” value (colon cancer HT-29) is given as “in vitro inhibition effects”, the “Inhibition effects on in vitro growth” value ([1]; 5 × 10^−5M) is given as 52.54% and the “Inhibition effects on in vitro growth” value ([1]; 10^−5M) is given as 35.31%. For the same compound, the “inhibition effects compared with Etoposide” value ([1]; 10^−5 to 10^−8 M) was “significant better than that of Etoposide”, the “Inhibition effects on in vitro growth” value ([1]; 10^−6M) was 33.2% and the “Inhibition effects on in vitro growth” value ([1]; 10^−7M) was 30.35%. The “Inhibition effects on in vitro growth” value ([1]; 10^−8M) was 24.49%, the “in vitro inhibition effects” value (human lung cancer A-549) was “in vitro inhibition effects” and the “Inhibition effects on in vitro growth” value ([2]; 5 × 10^−5M) was 67.05%. The “Inhibition effects on in vitro growth” value ([2]; 10^−5M) was 54.02%, the “Inhibition effects on in vitro growth” value ([2]; 10^−6M) was 50.95% and the “Inhibition effects on in vitro growth” value ([2]; 10^−7M) was 43.77%. For the same compound, the “Inhibition effects on in vitro growth” value ([2]; 10^−8M) was 35.82%, the “inhibition effects compared with Etoposide” value ([2]; K-562, 10^−5 to 10^−8 M) was “significant better than that of Etoposide” and the “Inhibition effects on in vitro growth” value ([3]; 5 × 10^−5M) was 52.98%. The “Inhibition effects on in vitro growth” value ([3]; 10^−5M) was 31.85%, the “Inhibition effects on in vitro growth” value ([3]; 10^−6M) was 22.49% and the “Inhibition effects on in vitro growth” value ([3]; 10^−7M) was 24.36%. The “Inhibition effects on in vitro growth” value ([3]; 10^−8M) was 24.32%, the “Inhibition effects on in vitro growth” value ([4]; 5 × 10^−5M) was 59.18% and the “Inhibition effects on in vitro growth” value ([4]; 10^−5M) was 56%. The “Inhibition effects on in vitro growth” value ([4]; 10^−6M) was 53.5%, the “Inhibition effects on in vitro growth” value ([4]; 10^−7M) was 52.24% and the “Inhibition effects on in vitro growth” value ([4]; 10^−8M) was 50.77%. The “inhibition effects compared with Etoposide” value ([4]; A-549, 10^−5 to 10^−8 M) was “significant better than that of Etoposide”, the “in vitro inhibition effects” value (P-388 leukemia) was “in vitro inhibition effects” and the Tumor volume ([5]; 2 mg/kg iv, 0 d) was 296 ± 117 mm^3. For the same compound, the RTV ([5]; 2 mg/kg iv, 2 d) was 1.396 ± 0.251, the T/C ([5]; 2 mg/kg iv, 2 d) was 86.85% and the Tumor volume ([5]; 2 mg/kg iv, 2 d) was 427 ± 190 mm^3. For the same compound, the RTV ([5]; 2 mg/kg iv, 4 d) was 1.827 ± 0.373, the T/C ([5]; 2 mg/kg iv, 4 d) was 69.97% and the Tumor volume ([5]; 2 mg/kg iv, 4 d) was 554 ± 234 mm^3. It also gave an RTV ([5]; 2 mg/kg iv, 6 d) of 2.391 ± 0.764, a T/C ([5]; 2 mg/kg iv, 6 d) of 78.07% and a Tumor volume ([5]; 2 mg/kg iv, 6 d) of 729 ± 364 mm^3. The RTV ([5]; 2 mg/kg iv, 8 d) was 2.819 ± 0.559, the T/C ([5]; 2 mg/kg iv, 8 d) was 64.20% and the Tumor volume ([5]; 2 mg/kg iv, 8 d) was 807 ± 294 mm^3. The Gross tumor volume ([5]; 2 mg/kg iv, 10 d) was 1039 ± 316 mm^3, the RTV ([5]; 2 mg/kg iv, 10 d) was 3.750 ± 1.015 and the T/C ([5]; 2 mg/kg iv, 10 d) was 74.96%. It also gave a Gross tumor volume ([5]; 2 mg/kg iv, 12 d) of 1424 ± 511 mm^3, an RTV ([5]; 2 mg/kg iv, 12 d) of 5.122 ± 1.538 and a T/C ([5]; 2 mg/kg iv, 12 d) of 68.96%. The RTV ([5]; 2 mg/kg iv, 14 d) was 6.698 ± 2.532, the T/C ([5]; 2 mg/kg iv, 14 d) was 78.93% and the Tumor volume ([5]; 2 mg/kg iv, 14 d) was 1777 ± 386 mm^3. The RTV ([5]; 2 mg/kg iv, 16 d) was 8.626 ± 3.791, the T/C ([5]; 2 mg/kg iv, 16 d) was 86.49% and the Tumor volume ([5]; 2 mg/kg iv, 16 d) was 2249 ± 394 mm^3. The RTV ([5]; 2 mg/kg iv, 18 d) was 8.825 ± 3.701, the T/C ([5]; 2 mg/kg iv, 18 d) was 78.31% and the Tumor volume ([5]; 2 mg/kg iv, 18 d) was 2304 ± 405 mm^3. The RTV ([5]; 2 mg/kg iv, 21 d) was 9.776 ± 3.452, the T/C ([5]; 2 mg/kg iv, 21 d) was 84.89% and the Tumor volume ([5]; 2 mg/kg iv, 21 d) was 2591 ± 412 mm^3. The Tumor volume ([5]; 4 mg/kg iv, 0 d) was 272 ± 131 mm^3, the RTV ([5]; 4 mg/kg iv, 2 d) was 1.324 ± 0.236 and the T/C ([5]; 4 mg/kg iv, 2 d) was 82.37%. It also gave a Tumor volume ([5]; 4 mg/kg iv, 2 d) of 381 ± 234 mm^3, an RTV ([5]; 4 mg/kg iv, 4 d) of 1.823 ± 0.427 and a T/C ([5]; 4 mg/kg iv, 4 d) of 69.82%. For the same compound, the Tumor volume ([5]; 4 mg/kg iv, 4 d) was 521 ± 288 mm^3, the RTV ([5]; 4 mg/kg iv, 6 d) was 2.465 ± 0.699 and the T/C ([5]; 4 mg/kg iv, 6 d) was 80.49%. It also gave a Tumor volume ([5]; 4 mg/kg iv, 6 d) of 729 ± 471 mm^3, an RTV ([5]; 4 mg/kg iv, 8 d) of 3.331 ± 0.641 and a T/C ([5]; 4 mg/kg iv, 8 d) of 75.85%. The Tumor volume ([5]; 4 mg/kg iv, 8 d) was 906 ± 434 mm^3, the Gross tumor volume ([5]; 4 mg/kg iv, 10 d) was 1052 ± 475 mm^3 and the RTV ([5]; 4 mg/kg iv, 10 d) was 4.041 ± 1.493. The T/C ([5]; 4 mg/kg iv, 10 d) was 80.78%, the Gross tumor volume ([5]; 4 mg/kg iv, 12 d) was 1261 ± 586 mm^3 and the RTV ([5]; 4 mg/kg iv, 12 d) was 4.780 ± 1.070. The T/C ([5]; 4 mg/kg iv, 12 d) was 64.35%, the RTV ([5]; 4 mg/kg iv, 14 d) was 5.954 ± 1.425 and the T/C ([5]; 4 mg/kg iv, 14 d) was 70.16%. The Tumor volume ([5]; 4 mg/kg iv, 14 d) was 1530 ± 572 mm^3, the RTV ([5]; 4 mg/kg iv, 16 d) was 6.870 ± 1.613 and the T/C ([5]; 4 mg/kg iv, 16 d) was 68.88%. For the same compound, the Tumor volume ([5]; 4 mg/kg iv, 16 d) was 1740 ± 637 mm^3, the RTV ([5]; 4 mg/kg iv, 18 d) was 7.697 ± 2.279 and the T/C ([5]; 4 mg/kg iv, 18 d) was 68.30%. It also gave a Tumor volume ([5]; 4 mg/kg iv, 18 d) of 1891 ± 664 mm^3, an RTV ([5]; 4 mg/kg iv, 21 d) of 7.832 ± 1.816 and a T/C ([5]; 4 mg/kg iv, 21 d) of 68.01%. It also gave a Tumor volume ([5]; 4 mg/kg iv, 21 d) of 1945 ± 586 mm^3, a Tumor volume ([5]; 8 mg/kg iv, 0 d) of 247 ± 108 mm^3 and an RTV ([5]; 8 mg/kg iv, 2 d) of 1.248 ± 0.113. The T/C ([5]; 8 mg/kg iv, 2 d) was 77.61%, the Tumor volume ([5]; 8 mg/kg iv, 2 d) was 313 ± 151 mm^3 and the RTV ([5]; 8 mg/kg iv, 4 d) was 1.721 ± 0.287. It also gave a T/C ([5]; 8 mg/kg iv, 4 d) of 65.92%, a Tumor volume ([5]; 8 mg/kg iv, 4 d) of 430 ± 196 mm^3 and an RTV ([5]; 8 mg/kg iv, 6 d) of 2.403 ± 0.652. It also gave a T/C ([5]; 8 mg/kg iv, 6 d) of 78.45%, a Tumor volume ([5]; 8 mg/kg iv, 6 d) of 559 ± 179 mm^3 and an RTV ([5]; 8 mg/kg iv, 8 d) of 2.747 ± 0.766. For the same compound, the T/C ([5]; 8 mg/kg iv, 8 d) was 62.55%, the Tumor volume ([5]; 8 mg/kg iv, 8 d) was 635 ± 183 mm^3 and the Gross tumor volume ([5]; 8 mg/kg iv, 10 d) was 895 ± 252 mm^3. The RTV ([5]; 8 mg/kg iv, 10 d) was 3.853 ± 0.732, the T/C ([5]; 8 mg/kg iv, 10 d) was 77.03% and the Gross tumor volume ([5]; 8 mg/kg iv, 12 d) was 1034 ± 246 mm^3. It also gave an RTV ([5]; 8 mg/kg iv, 12 d) of 4.548 ± 1.106, a T/C ([5]; 8 mg/kg iv, 12 d) of 61.23% and an RTV ([5]; 8 mg/kg iv, 14 d) of 4.845 ± 1.330. The T/C ([5]; 8 mg/kg iv, 14 d) was 57.10%, the Tumor volume ([5]; 8 mg/kg iv, 14 d) was 1122 ± 368 mm^3 and the RTV ([5]; 8 mg/kg iv, 16 d) was 4.955 ± 1.786. It also gave a T/C ([5]; 8 mg/kg iv, 16 d) of 49.68%, a Tumor volume ([5]; 8 mg/kg iv, 16 d) of 1132 ± 397 mm^3 and an RTV ([5]; 8 mg/kg iv, 18 d) of 5.609 ± 1.197. For the same compound, the T/C ([5]; 8 mg/kg iv, 18 d) was 49.77%, the Tumor volume ([5]; 8 mg/kg iv, 18 d) was 1292 ± 340 mm^3 and the RTV ([5]; 8 mg/kg iv, 21 d) was 5.721 ± 0.925. For the same compound, the T/C ([5]; 8 mg/kg iv, 21 d) was 49.68%, the Tumor volume ([5]; 8 mg/kg iv, 21 d) was 1375 ± 558 mm^3 and the Initial body weight ([5]; H460 nude mice, 2 mg/kg iv group) was 22.50 ± 1.38 g. It also gave an Ending body weight ([5]; H460 nude mice, 2 mg/kg iv) of 25.32 ± 2.25 g, a Tumor weight ([5]; H460 nude mice, 2 mg/kg iv) of 2.94 ± 0.68 g and a Tumor-inhibition rate ([5]; H460 nude mice, 2 mg/kg iv) of 9.49%. It also gave an Initial body weight ([5]; H460 nude mice, 4 mg/kg iv group) of 23.33 ± 2.25 g, an Ending body weight ([5]; H460 nude mice, 4 mg/kg iv) of 23.32 ± 2.08 g and a Tumor weight ([5]; H460 nude mice, 4 mg/kg iv) of 2.52 ± 0.92 g. It also gave a Tumor-inhibition rate ([5]; H460 nude mice, 4 mg/kg iv) of 22.56%, an Initial body weight ([5]; H460 nude mice, 8 mg/kg iv group) of 22.33 ± 1.51 g and an Ending body weight [5, 6] of 22.55 ± 2.50 g. For the same compound, the Tumor weight [5, 6] was 1.85 ± 0.95 g, the Tumor-inhibition rate [5, 6] was 43.08% and the “effects on the body weight of the animals” value ([5]; H460 nude mice, dosage groups of DPT (8, 4, 2 mg/kg iv)) was “no significant inhibition effects on the body weight of the animals”.
